Several values for one entry are separate records, joined by “and”; a condition that tells them apart may be missing. Identical values can stand only once. Toxic doses and inconclusive results are not listed.
System: P388 leukemia ip, CD2F1 mice, survival T/C
Assay: NCI In Vivo Anticancer Drug Screen. Data for tumor model P388 Leukemia (intraperitoneal) in CD2F1 (CDF1) mice
Conditions: endpoint: median survival time, higher = longer survival
Outline: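 Mice carrying the transplanted tumor received test compound or vehicle. Survival was recorded in each group, and the value is the treated-group measurement divided by that of the vehicle-treated control group.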

[1] = dose: 50.0 mg/kg/injection, schedule: Q01DX009 (ip), vehicle: saline with Tween-80
[2] = dose: 100.0 mg/kg/injection, schedule: Q01DX009 (ip), vehicle: saline with Tween-80
[3] = dose: 50.0 mg/kg/injection, schedule: Q01DX005 (ip), vehicle: Klucel (hydroxypropylcellulose) (HPC)
[4] = dose: 50.0 mg/kg/injection, schedule: Q01DX005 (ip), vehicle: saline with Tween-80
[5] = dose: 100.0 mg/kg/injection, schedule: Q01DX005 (ip), vehicle: Klucel (hydroxypropylcellulose) (HPC)
[6] = dose: 100.0 mg/kg/injection, schedule: Q01DX005 (ip), vehicle: saline with Tween-80
[7] = dose: 200.0 mg/kg/injection, schedule: Q01DX005 (ip), vehicle: Klucel (hydroxypropylcellulose) (HPC)
[8] = dose: 200.0 mg/kg/injection, schedule: Q01DX005 (ip), vehicle: saline with Tween-80
[9] = dose: 15.0 mg/kg/injection, schedule: Q01DX005 (ip), vehicle: saline with Tween-80
[10] = dose: 12.5 mg/kg/injection, schedule: Q01DX009 (ip), vehicle: saline with Tween-80
[11] = dose: 25.0 mg/kg/injection, schedule: Q01DX009 (ip), vehicle: saline with Tween-80

## O=C(/C=C\N(c1ccccc1)c1ccccc1)c1ccccc1
[1]
  T/C: 90 % of control
[2]
  T/C: 93 % of control
dose: 200.0 mg/kg/injection, schedule: Q01DX009 (ip), vehicle: saline with Tween-80
  T/C: 94 % of control

## N#CC1=C(O)NC(O)=C(C#N)C12C(=O)Nc1ccccc12
[3]
  T/C: 98 % of control
[4]
  T/C: 104 % of control
[5]
  T/C: 101 % of control
[6]
  T/C: 104 % of control
[7]
  T/C: 99 % of control
[8]
  T/C: 104 % of control

## CC1OC(=S)N(c2cccc3ccccc23)C1=O (stereo unspecified)
dose: 100.0 mg/kg/injection, schedule: Q01DX001 (ip), vehicle: saline with Tween-80
  T/C: 93 % of control
dose: 200.0 mg/kg/injection, schedule: Q01DX001 (ip), vehicle: saline with Tween-80
  T/C: 90 % of control
dose: 400.0 mg/kg/injection, schedule: Q01DX001 (ip), vehicle: saline with Tween-80
  T/C: 94 % of control

## COc1cc(OC)c2c(O)c3c(=O)cc(C)oc3c(-c3c4cc(OC)cc(OC)c4c(O)c4c(=O)cc(C)oc34)c2c1
dose: 12.5 mg/kg/injection, schedule: Q01DX005 (ip), vehicle: Klucel (hydroxypropylcellulose) (HPC)
  T/C: 114 % of control
dose: 25.0 mg/kg/injection, schedule: Q01DX005 (ip), vehicle: Klucel (hydroxypropylcellulose) (HPC)
  T/C: 100 % of control
[3]
  T/C: 96 % of control
[5]
  T/C: 100 % of control
[7]
  T/C: 90 % of control
dose: 400.0 mg/kg/injection, schedule: Q01DX005 (ip), vehicle: Klucel (hydroxypropylcellulose) (HPC)
  T/C: 97 % of control

## Clc1cc(Cl)nc(N2CC2)n1
dose: 5.0 mg/kg/injection, schedule: Q01DX009 (ip), vehicle: saline with Tween-80
  T/C: 116 % of control
dose: 5.0 mg/kg/injection, schedule: Q04DX003 (ip), vehicle: saline with Tween-80
  T/C: 100 % of control
dose: 10.0 mg/kg/injection, schedule: Q01DX009 (ip), vehicle: saline with Tween-80
  T/C: 100 % of control
dose: 10.0 mg/kg/injection, schedule: Q04DX003 (ip), vehicle: saline with Tween-80
  T/C: 104 % of control
dose: 20.0 mg/kg/injection, schedule: Q04DX003 (ip), vehicle: saline with Tween-80
  T/C: 118 % of control

## O=C1NC(O)c2cc(F)ccc2O1 (stereo unspecified)
dose: 25.0 mg/kg/injection, schedule: Q01DX005 (ip), vehicle: saline with Tween-80
  T/C: 104 % of control
[4]
  T/C: 105 % of control and 110 % of control
[6]
  T/C: 111 % of control and 115 % of control
[8]
  T/C: 111 % of control

## C1=C(N2CCCC2)C(=[N+]2CCCC2)C(N2CCCC2)=C1
dose: 3.75 mg/kg/injection, schedule: Q01DX005 (ip), vehicle: saline with Tween-80
  T/C: 101 % of control
dose: 7.5 mg/kg/injection, schedule: Q01DX005 (ip), vehicle: saline with Tween-80
  T/C: 100 % of control
[9]
  T/C: 105 % of control

## COc1cc2ccnc(C3(O)CCN(C)CC3)c2cc1OC
dose: 6.25 mg/kg/injection, schedule: Q01DX009 (ip), vehicle: Klucel (hydroxypropylcellulose) (HPC)
  T/C: 94 % of control
dose: 12.5 mg/kg/injection, schedule: Q01DX009 (ip), vehicle: Klucel (hydroxypropylcellulose) (HPC)
  T/C: 98 % of control
dose: 25.0 mg/kg/injection, schedule: Q01DX009 (ip), vehicle: Klucel (hydroxypropylcellulose) (HPC)
  T/C: 93 % of control
dose: 50.0 mg/kg/injection, schedule: Q01DX001 (ip), vehicle: Klucel (hydroxypropylcellulose) (HPC)
  T/C: 102 % of control
dose: 100.0 mg/kg/injection, schedule: Q01DX001 (ip), vehicle: Klucel (hydroxypropylcellulose) (HPC)
  T/C: 105 % of control
dose: 200.0 mg/kg/injection, schedule: Q01DX001 (ip), vehicle: Klucel (hydroxypropylcellulose) (HPC)
  T/C: 97 % of control

## O=c1[nH]c2ccc(Br)cc2c(=O)o1
[10]
  T/C: 104 % of control
[11]
  T/C: 102 % of control
[1]
  T/C: 110 % of control
dose: 100.0 mg/kg/injection, schedule: Q01DX001 (ip), vehicle: other
  T/C: 100 % of control
[2]
  T/C: 114 % of control
dose: 200.0 mg/kg/injection, schedule: Q01DX001 (ip), vehicle: other
  T/C: 100 % of control
dose: 400.0 mg/kg/injection, schedule: Q01DX001 (ip), vehicle: other
  T/C: 95 % of control

## O=C(C[n+]1ccccc1)N/N=C/c1ccc([N+](=O)[O-])s1
dose: 6.25 mg/kg/injection, schedule: Q01DX009 (ip), vehicle: saline with Tween-80
  T/C: 100 % of control
dose: 6.25 mg/kg/injection, schedule: Q01DX009 (ip), vehicle: saline
  T/C: 104 % of control
[10]
  T/C: 96 % of control
dose: 12.5 mg/kg/injection, schedule: Q01DX009 (ip), vehicle: saline
  T/C: 100 % of control
[11]
  T/C: 116 % of control
dose: 25.0 mg/kg/injection, schedule: Q01DX009 (ip), vehicle: saline
  T/C: 100 % of control

## C=CC(=NC(C)(C)C)N(CC)CC
[9]
  T/C: 103 % of control
dose: 30.0 mg/kg/injection, schedule: Q01DX005 (ip), vehicle: saline with Tween-80
  T/C: 105 % of control
dose: 60.0 mg/kg/injection, schedule: Q01DX005 (ip), vehicle: saline with Tween-80
  T/C: 100 % of control and 106 % of control

## OCc1nc(-c2ccccc2)sc1-c1cnc2ccccc2n1
dose: 100.0 mg/kg/injection, schedule: Q04DX002 (ip), vehicle: Klucel (hydroxypropylcellulose) (HPC)
  T/C: 104 % of control
dose: 200.0 mg/kg/injection, schedule: Q04DX002 (ip), vehicle: Klucel (hydroxypropylcellulose) (HPC)
  T/C: 99 % of control
dose: 400.0 mg/kg/injection, schedule: Q04DX002 (ip), vehicle: Klucel (hydroxypropylcellulose) (HPC)
  T/C: 101 % of control

## C/C=C/C=C/c1cc2cc3c(c(O)c2c(=O)[nH]1)C1(CC3)C(O)=c2c(=O)c3c(=O)cc(OC)c(=O)c=3c(=O)c2=C1O (stereo unspecified)
dose: 0.12 mg/kg/injection, schedule: Q01DX009 (ip), vehicle: other
  T/C: 116 % of control
dose: 0.25 mg/kg/injection, schedule: Q01DX009 (ip), vehicle: other
  T/C: 118 % of control
dose: 0.5 mg/kg/injection, schedule: Q01DX009 (ip), vehicle: other
  T/C: 87 % of control and 100 % of control
dose: 0.75 mg/kg/injection, schedule: Q01DX009 (ip), vehicle: Klucel (hydroxypropylcellulose) (HPC)
  T/C: 98 % of control
dose: 1.0 mg/kg/injection, schedule: Q01DX009 (ip), vehicle: other
  T/C: 113 % of control
dose: 1.5 mg/kg/injection, schedule: Q01DX009 (ip), vehicle: Klucel (hydroxypropylcellulose) (HPC)
  T/C: 99 % of control
dose: 1.5 mg/kg/injection, schedule: Q01DX009 (ip), vehicle: saline with Tween-80
  T/C: 112 % of control
dose: 6.0 mg/kg/injection, schedule: Q01DX009 (ip), vehicle: Klucel (hydroxypropylcellulose) (HPC)
  T/C: 156 % of control
dose: 8.0 mg/kg/injection, schedule: Q01DX009 (ip), vehicle: other
  T/C: 123 % of control
dose: 12.0 mg/kg/injection, schedule: Q01DX009 (ip), vehicle: Klucel (hydroxypropylcellulose) (HPC)
  T/C: 192 % of control
dose: 12.0 mg/kg/injection, schedule: Q01DX009 (ip), vehicle: saline with Tween-80
  T/C: 87 % of control
dose: 63.0 micrograms/kg/injection, schedule: Q01DX009 (ip), vehicle: other
  T/C: 101 % of control
dose: 63.0 micrograms/kg/injection, schedule: Q01DX009 (ip), vehicle: water
  T/C: 101 % of control and 110 % of control
dose: 125.0 micrograms/kg/injection, schedule: Q01DX009 (ip), vehicle: other
  T/C: 99 % of control
dose: 125.0 micrograms/kg/injection, schedule: Q01DX009 (ip), vehicle: water
  T/C: 112 % of control and 119 % of control
dose: 250.0 micrograms/kg/injection, schedule: Q01DX009 (ip), vehicle: other
  T/C: 102 % of control
dose: 250.0 micrograms/kg/injection, schedule: Q01DX009 (ip), vehicle: water
  T/C: 119 % of control and 120 % of control
dose: 500.0 micrograms/kg/injection, schedule: Q01DX009 (ip), vehicle: other
  T/C: 114 % of control
dose: 500.0 micrograms/kg/injection, schedule: Q01DX009 (ip), vehicle: water
  T/C: 153 % of control
dose: 1000.0 micrograms/kg/injection, schedule: Q01DX009 (ip), vehicle: other
  T/C: 115 % of control
dose: 1000.0 micrograms/kg/injection, schedule: Q01DX009 (ip), vehicle: water
  T/C: 160 % of control and 178 % of control
dose: 2000.0 micrograms/kg/injection, schedule: Q01DX009 (ip), vehicle: water
  T/C: 175 % of control

## CC1CCC2(C)CCC3(C)C(=CCC4C5(C)CCC(Oc6ccc(O)cc6)C(C)(C)C5CCC43C)C2C1C(=O)O (stereo unspecified)
dose: 0.5 mg/kg/injection, schedule: Q01DX005 (ip), vehicle: DMSO
  T/C: 101 % of control
dose: 1.0 mg/kg/injection, schedule: Q01DX005 (ip), vehicle: DMSO
  T/C: 100 % of control
dose: 2.0 mg/kg/injection, schedule: Q01DX005 (ip), vehicle: DMSO
  T/C: 101 % of control
dose: 4.0 mg/kg/injection, schedule: Q01DX005 (ip), vehicle: DMSO
  T/C: 100 % of control

Source: PubChem BioAssay AID330 (DTP/NCI, 2004)
